Literature values in US11612579B2, “Compositions comprising a fatty acid oil mixture and a surfactant, and methods and uses thereof” (PRONOVA BIOPHARMA NORGE AS, priority 2009, dated 2023).
Where “and” joins values, the source holds several entries; their conditions need not be identical. Equal values may be shown once.

conditions: commercially-available surfactants

| Compound | HLB Value |
| --- | --- |
| CCCCCCCCCCCC(=O)OCCOCCO [Diethylene glycol monolaurate] | 6.1 |
| CCCCCCCCCCCCCCCC[N+](C)(C)C.[Br-] [Cetrimonium bromide] | 23.3 |
| CCCCCCCCCCCCCCCCCC(=O)OCC(O)CO (centres unmarked) [Glyceryl monostearate] | 3.3 and 3.8 |
| CCCCCCCCCCCCOS(=O)(=O)[O-].[Na+] [Sodium lauryl sulphate] | 40 |
| sorbitan monostearate [Span ® 60] | 4.7 |

Continued, values first:

| HLB Value | Compound |
| --- | --- |
| 6.7 | sorbitan monopalmitate [Span ® 40] |
| 1.5 | CCCCCCCCCCCCCCCCCC(=O)OCCOC(=O)CCCCCCCCCCCCCCCCC [Ethylene glycol distearate] |
| 4.3 | sorbitan monooleate [Span ® 80] |
